pIC50, pKi: −log10 of the molar value. Values joined by “and” are separate entries in the source; they are usually repeats but may differ in a detail not shown here. Identical values can stand only once.
What was measured:
BRD4 BD1 protein = BRD4 BD1 protein (Homo sapiens (Human), UniProt O60885); assay: Fluorescence polarization binding affinity (Ki) with BRD4 BD1 protein; settings: fluorescence polarization; Ki calculated from IC50
[1] = system: multiple myeloma MM.1S cell line; assay: Cell viability (CCK-8), multiple myeloma MM.1S; type: cell-based; settings: Homo sapiens, MM1.S, 96 h, MM.1S cells, 4 days, CCK-8, 50% inhibition of cell growth
Procedure: 3. Determination of cell viability of the compound
The sample to be tested was dissolved with 100% dimethyl sulfoxide to prepare a 20 mM stock solution of the compound, which was diluted with 100% dimethyl sulfoxide to the highest compound concentration required for the experiment (2.5 mM).
First, 145 uL of a complete cell culture medium was added to wells B1-G1 of a 96-well flat-bottomed tansparent cell culture plate, and 100 uL of the complete medium was added to wells B2-G12, respectively. Then, 5 uL of the 2.5 mM solution of the compound was added to wells B1-D1 and E1-G1 respectively, and then diluted gradiently by 3-folds to B12-D12 and E12-G12 in sequence. Finally, 50 uL of the solution of the cells to be tested was added to each well, with about 3000-5000 cells per well, and a total volume of 150 uL per well.
In the experiment, in addition to the tested compound, two other control groups were set up: 1) a control group adding the cells and the complete medium, but without adding the compound; 2) a control group adding the complete medium only, without adding the cells and the compound. The 96-well plate was placed in a 37° C. cell culture incubator containing 5% carbon dioxide for 4 days, added with 15 uL of a CCK-8 reagent per well, and then incubated at 37° C. for 2-4 hours. The 96-well plate was read on a TECAN microplate reader, and the absorbance value at 450 nm wavelength was taken.
The effect of different concentrations of the compound on cell viability was calculated by the following equation: [absorption value of the experimental group−absorption value of pure cell culture medium without the cells or the compound]/[absorption value of the control group with the tumor cells but no testing compound−absorption value of pure cell culture medium without the cell or the compound]×100%.
The above data were precessed by software, and the IC50 value was the concentration of the compound corresponding to the 50% inhibition rate of cell growth.
Based on the above test method of the compound on cell viability, a variety of […] cancer cell lines were tested, using multiple myeloma MM.1S, breast cancer MDA-MB-231 and leukemia MV4-11 cell lines as exemples. Using this test method, the IC50 values of partial compounds in the examples of the present invention measured in multiple myeloma MM.1S, breast cancer MDA-MB-231 cell lines and leukemia MV4-11 cell lines were shown in Table 2.

BRD4 BD2 protein = BRD4 BD2 protein (Homo sapiens (Human), UniProt O60885); assay: Fluorescence polarization binding affinity (Ki) with BRD4 BD2 protein; settings: fluorescence polarization; Ki calculated from IC50

| SMILES | pKi (BRD4 BD1 protein) | pIC50 [1] | pKi (BRD4 BD2 protein) |
| --- | --- | --- | --- |
| COc1ccc2c(c1)C(Nc1ccc(C)cc1)CCc1onc(C)c1-2 (centres unmarked) [BB188, 8-methoxy-1-methyl-N-(p-tolyl)-5,6-dihydro-4H-benzo[6,7]cyclohepta[1,2-d]isoxazol-6-amine] | 7.03 | 6.09 | 7.38 |
| COc1ccc2c(c1)C(Nc1ccc(F)cc1)CCc1onc(C)c1-2 (centres unmarked) [BB189, N-(4-fluorophenyl)-8-methoxy-1-methyl-5,6-dihydro-4H-benzo[6,7]cyclohepta[1,2-d]isoxazol-6-amine] | 6.76 | 6.64 | 7.04 |
| CCc1nnn2c1-c1ccc(-c3cnn(C)c3)cc1C(Nc1ccc(Cl)cc1)CC2 (centres unmarked) [BE02, N-(4-chlorophenyl)-1-ethyl-9-(1-methyl-1H-pyrazol-4-yl)-6,7-dihydro-5H-benzo[c][1,2,3]triazolo[1,5-a]azepin-7-amine] | 6.89 | 6.86 | 7.37 |
| Cc1nnn2c1-c1ccc(-c3cnn(C)c3)cc1C(Nc1ccc(Cl)cc1)CC2C (centres unmarked) [BE25, N-(4-chlorophenyl)-1,5-dimethyl-9-(1-methyl-1H-pyrazol-4-yl)-6,7-dihydro-5H-benzo[c][1,2,3]triazolo[1,5-a]azepin-7-amine] | 7.68 | 8.46 | 8.03 |
| Cn1cc(-c2ccc3c(c2)C(Nc2ccc(Cl)cc2)CCn2nnc(C4CC4)c2-3)cn1 (centres unmarked) [BE44, N-(4-chlorophenyl)-1-cyclopropyl-9-(1-methyl-1H-pyrazol-4-yl)-6,7-dihydro-5H-benzo[c][1,2,3]triazolo[1,5-a]azepin-7-amine] | 6.76 | 6.00 | 7.32 |
| Cc1nnn2c1-c1ccc(-c3cnn(C)c3)cc1C(Oc1ccc(F)cc1F)CC2 (centres unmarked) [BE95, 7-(2,4-difluorophenoxy)-1-methyl-9-(1-methyl-1H-pyrazol-4-yl)-6,7-dihydro-5H-benzo[c][1,2,3]triazolo[1,5-a]azepine] | 6.24 | 5.50 | 7.06 |
| Cc1cc(NC2CCn3nnc(C)c3-c3ccc(-c4cnn(C)c4)cc32)n(C)n1 (centres unmarked) [BE114, N-(1,3-dimethyl-1H-pyrazol-5-yl)-1-methyl-9-(1-methyl-1H-pyrazol-4-yl)-6,7-dihydro-5H-benzo[c][1,2, 3]triazolo[1,5-a]azepin-7-amine] | 7.34 | 6.11 | 8.15 |
| Cc1nnn2c1-c1ccc(-c3cnn(C)c3)cc1C(Nc1ccnn1C)CC2 (centres unmarked) [BE118, 1-methyl-9-(1-methyl-1H-pyrazol-4-yl)-N-(1-methyl-1H-pyrazol-5-yl)-6,7-dihydro-5H-benzo[c][1,2,3] triazolo[1,5-a]azepin-7-amine] | 6.57 | 6.22 | 7.63 |
| Cc1nnn2c1-c1ccc(-c3cnn(C)c3)cc1C(Oc1ccc(Cl)cc1)CC2 (centres unmarked) [BE128, 7-(4-chlorophenoxy)-1-methyl-9-(1-methyl-1H-pyrazol-4-yl)-6,7-dihydro-5H-benzo[c][1,2,3]triazolo[1,5-a]azepine] | 6.75 | 6.16 | 7.77 |
| Cc1nnn2c1-c1ccc(-c3cnn(C)c3)cc1C(Nc1cc(C3CC3)nn1C)CC2 (centres unmarked) [BE130, N-(3-cyclopropyl-1-methyl-1H-pyrazol-5-yl)-1-methyl-9-(1-methyl-1H-pyrazol-4-yl)-6,7-dihydro-5H-benzo[c][1,2,3]triazolo[1,5-a]azepin-7-amine] | 6.86 | 6.77 | 7.52 |
| CC(=O)N1CC=C(c2ccc3c(c2)C(Nc2cccc(Cl)c2)CCn2nnc(C)c2-3)CC1 (centres unmarked) [BH29, 1-(4-(7-((3-chlorophenyl)amino)-1-methyl-6,7-dihydro-5H-benzo[c][1,2,3]triazolo[1,5-a]azepin-9-yl)-3,6-dihydropyridin-1(2H)-yl)ethan-1-one] | 7.40 | 9.00 | 8.90 |
| Cc1nnn2c1-c1ccc(C3=CCN(C(C)C)CC3)cc1C(Nc1cccc(Cl)c1)CC2 (centres unmarked) [BH32, N-(3-chlorophenyl)-9-(1-isopropyl-1,2,3,6-tetrahydropyridin-4-yl)-1-methyl-6,7-dihydro-5H-benzo[c][1,2,3]triazolo[1,5-a]azepin-7-amine 2,2,2-trifluoroacetate] | 6.28 | 6.92 | 8.01 |
| CCN1CC=C(c2ccc3c(c2)C(Nc2cccc(OC)c2)CCn2nnc(C)c2-3)CC1 (centres unmarked) [BH33, 9-(1-ethyl-1,2,3,6-tetrahydropyridin-4-yl)-N-(3-methoxyphenyl)-1-methyl-6,7-dihydro-5H-benzo[c][1,2,3]triazolo[1,5-a]azepin-7-amine 2,2,2-trifluoroacetate] | 5.75 and 6.16 | 6.73 | 7.41 and 7.55 |
| COc1cccc(NC2CCn3nnc(C)c3-c3ccc(C4=CCN(C(C)C)CC4)cc32)c1 (centres unmarked) [BH37, 9-(1-isopropyl-1,2,3,6-tetrahydropyridin-4-yl)-N-(3-methoxyphenyl)-1-methyl-6,7-dihydro-5H-benzo[c][1,2,3]triazolo[1,5-a]azepin-7-amine 2,2,2-trifluoroacetate] | 5.73 and 5.81 | 6.45 | 7.21 and 7.55 |
| COc1ccc(NC2CCc3onc(C)c3-c3ccc(OC)cc32)cc1 (centres unmarked) [FA01, 8-methoxy-N-(4-methoxyphenyl)-1-methyl-5,6-dihydro-4H-benzo[6,7]cyclohepta[1,2-d]isoxazol-6-amine] | 6.77 | 6.25 | 6.98 |
| COc1ccc2c(c1)C(Nc1ccccc1)CCc1onc(C)c1-2 (centres unmarked) [FA03, 8-methoxy-1-methyl-N-phenyl-5,6-dihydro-4H-benzo[6,7]cyclohepta[1,2-d]isoxazol-6-amine] | 6.69 | 6.30 | 7.25 |
| COc1ccc2c(c1)C(Nc1ccc(C(F)(F)F)cc1)CCc1onc(C)c1-2 (centres unmarked) [FA05, 8-methoxy-1-methyl-N-(4-(trifluoromethyl)phenyl)-5,6-dihydro-4H-benzo[6,7]cyclohepta[1,2-d]isoxazol-6-amine] | 6.69 | 7.60 | 6.86 |
| Cc1noc2c1-c1ccc(-c3cnn(C)c3)cc1C(Nc1ccc(Cl)cc1)CC2 (centres unmarked) [LA55, N-(4-chlorophenyl)-1-methyl-8-(1-methyl-1H-pyrazol-4-yl)-5,6-dihydro-4H-benzo[6,7]cyclohepta[1,2-d]isoxazol-6-amine] | 7.27 | 7.58 | 7.59 |
| Cc1noc2c1-c1ccc(-c3cn[nH]c3)cc1C(Nc1ccc(Cl)cc1)CC2 (centres unmarked) [LA108, N-(4-chlorophenyl)-1-methyl-8-(1H-pyrazol-4-yl)-5,6-dihydro-4H-benzo[6,7]cyclohepta[1,2-d]isoxazol-6-amine] | 7.09 | 7.52 | 7.50 |
| Cc1nnn2c1-c1ccc(-c3cnn(C)c3)cc1C(Nc1ccccc1CCO)CC2 (centres unmarked) [LA198, 2-(2-((1-methyl-9-(1-methyl-1H-pyrazol-4-yl)-6,7-dihydro-5H-benzo[c][1,2,3]triazolo[1,5-a]azepin-7-yl)amino)phenyl)ethan-1-ol] | 7.36 | 7.64 | 7.67 |
| Cc1nnn2c1-c1ccc(-c3cnn(C)c3)cc1C(Nc1ccc(N(C)C)cc1)CC2 (centres unmarked) [LB17, N^1,N^1-dimethyl-N^4-(1-methyl-9-(1-methyl-1H-pyrazol-4-yl)-6,7-dihydro-5H-benzo[c][1,2,3]triazolo[1,5-a]azepin-7-yl)benzene-1,4-diamine] | 6.63 | 6.93 | 7.36 |
| Cc1nnn2c1-c1ccc(-c3cnn(C)c3)cc1C(Nc1ccc(C(=O)O)cc1)CC2 (centres unmarked) [LB20, 4-((1-methyl-9-(1-methyl-1H-pyrazol-4-yl)-6,7-dihydro-5H-benzo[c][1,2,3]triazolo[1,5-a]azepin-7-yl)amino)benzoic acid] | 5.76 | 5.61 | 7.08 |
| COC(=O)Cc1ccc(NC2CCn3nnc(C)c3-c3ccc(-c4cnn(C)c4)cc32)cc1 (centres unmarked) [LB38, methyl 2-(4-((1-methyl-9-(1-methyl-1H-pyrazol-4-yl)-6,7-dihydro-5H-benzo[c][1,2,3]triazolo[1,5-a]azepin-7-yl)amino)phenyl)acetate] | – | 7.48 | – |
| Cc1nnn2c1-c1ccc(-c3cnn(C)c3)cc1C(Nc1cccc(CCO)c1)CC2 (centres unmarked) [LB71, 2-(3-((1-methyl-9-(1-methyl-1H-pyrazol-4-yl)-6,7-dihydro-5H-benzo[c][1,2,3]triazolo[1,5-a]azepin-7-yl)amino)phenyl)ethanol] | – | 6.82 | – |
